# “And” between values parts separate entries of the source, which are not always exact repeats. Equal values may be shown once. Where a name gives a salt, the structure may show the parent alone.
# System: 5-HIAA release in the rat prefrontal cortex
# Assay: Microdialysis: 5-HIAA release in prefrontal cortex after I.P. administration
# Type: in vivo
# Conditions: for 5-HIAA (% of respective basal), individual animal: 0.1 mg/kg I.P., c2-c9 = R#13,14,20,19,25,26,31,32; for 5-HIAA (% of respective basal), individual animal / 5-HIAA release, individual animals: hydrochloride; for 5-HIAA release, MEAN / 5-HIAA release, individual animals: 0.3 mg/kg I.P.; for 5-HIAA release, MEAN: n = 8; for 5-HIAA release, individual animals: one column per animal R#11,12,18,23,29,30,17,24
# Procedure: The aim of the study was to evaluate, using microdialysis, the effects of an intraperitoneal (I.P.) administration in rats of three different doses of SON-117 on dopamine and its metabolites, serotonin and its metabolite (5-HIAA), and norepinephrine levels in prefrontal cortex.
# Thirty-two adult male Wistar rats were used for the whole study (4 groups of eight animals planned for the study, Table 1).
# Surgery was performed on rats weighing about 300 g at the beginning of the experiments. Rats were anaesthetized with Ketamine (50 mg/kg) & Xylazine (15 mg/kg) by intramuscular administration. The animals were placed in a stereotaxic apparatus in the flat-skull position at a constant setting of −3.3 mm between ear bars and the incisor bar. The animals were treated with a local anesthesic (xylocaine 1%, Astra Zeneca) and an analgesic (Temgesic, from Schering Plough, 0.05 mg/kg, s.c.). A rostrocaudal midline incision was made with a lancet to expose the dorsal skull surface. The “stereotaxic zero” was defined by the Bregma in accordance with Paxinos and Watson's atlas (1986). A hole was drilled in the skull with a drill and the meninges were pierced with a sterile needle to implant a CMA12 guide cannula which later received the dialysis probe.
# Coordinates used for implanting guide cannula in prefrontal cortex from Bregma were anteroposterior 3.7 mm, mediolateral 0.8 mm, and dorsoventral −2 mm (top of the probe was at −5 mm). The guide cannula was fixed to the skull with two stainless steel screws (1.88 mm outside diameter) anchored. An application of dental cement was added. A plastic collar allowed each animal to be tethered to a Swivel assembly of the CMA 120 awake animal system. Following surgery, rats were kept in individual cages and allowed to recover for a minimum of 3-5 days before the experimentation. The rats were handled and put in plastic bowl for 10 min at least every day to habituate the animals to their new environment for the dialysis. An I.P. administration with saline was also performed every day.
# Dialysis probes (CMA12/3 mm, membrane, 20 kD cut-off, Carnegie Medicine, Stockholm, Sweden), were carefully washed before inserting into the guide cannula. The wash was performed with the artificial cerebrospinal fluid (aCSF) medium (NaCl 147 mM, KCl 2.7 mM, CaCl2 1.2 mM, MgCl2 0.85 mM) at room temperature. The dialysis system was then equilibrated at 20° C. at a perfusion rate of 1 μl/min with a Carnegie pump (CMA100). All catheters (FEP tubing, internal volume of 1.2 μl/10 cm, and tubing adaptors) used for microdialysis were treated in the same conditions.
# The probes duly prepared were inserted into the guide cannula and the CMA120 Swivel assembly secured to the animal using a plastic collar. Flow through the dialysis probe with aCSF was maintained at a rate of 1 μl/min during the whole experimentation. The first four fractions (corresponding to 2 hours) were discarded to avoid the effects of parenchymal disturbance and to ensure that an approximate steady-state level was reached. Fractions were then collected over a period of 8.5 h during which time the animals remained quiet. The dialysates were automatically collected with an autosampler (microfraction collector CMA 140, Carnegie Medicin) and stored at −80° C. until analysis. […] Perfusion was then maintained for 7 hours with aCSF. The dialysates (30 μl) were collected into 300 μl vials, transferred into dry ice and then kept frozen (−80° C.) until analysis. Frozen samples were shipped to a partner for analysis. At the end of the microdialysis study, a PBS with colored ink was perfused through the probe in order to visualize the dialyzed area.
# Catecholamine assay: Concentrations of dopamine, DOPAC, HVA, 5-HIAA, 5-HT, and norepinephrin were determined for each sample by HPLC coupled with electrochemical detection.
smiles,measurement,setting,value
"Cc1nnc(-c2cc3c(OC[C@@H](O)CN4CCC(c5ccc(Cl)c(Cl)c5)CC4)cccc3o2)o1 [SON-117, (S)-1-(4-(3,4-dichlorophenyl)piperidino)-3-(2-(5-methyl-1,3,4-oxadiazol-2-yl)benzo(b)furan-4-yloxy)-2-propanol hydrochloride]","5-HIAA (% of respective basal), individual animal",T30-T1 h,123.49 % of respective basal and 103.49 % of respective basal and 107.39 % of respective basal and 112.69 % of respective basal and 111.19 % of respective basal and 139.2 % of respective basal and 117.52 % of respective basal and 104.09 % of respective basal
same,"5-HIAA (% of respective basal), individual animal",T1 h 30-T2 h,92.61 % of respective basal and 104.00 % of respective basal and 73.42 % of respective basal and 136.95 % of respective basal and 121.36 % of respective basal and 90.88 % of respective basal and 109.96 % of respective basal and 88.3 % of respective basal
same,"5-HIAA (% of respective basal), individual animal",T1 h-T1 h 30,133.03 % of respective basal and 136.32 % of respective basal and 86.58 % of respective basal and 118.45 % of respective basal and 137.53 % of respective basal and 136.04 % of respective basal and 114.03 % of respective basal and 94.61 % of respective basal
same,"5-HIAA (% of respective basal), individual animal",T2 h 30-T3 h,85.72 % of respective basal and 87.35 % of respective basal and 46.33 % of respective basal and 101.63 % of respective basal and 145.61 % of respective basal and 142.25 % of respective basal and 116.28 % of respective basal and 27.66 % of respective basal
same,"5-HIAA (% of respective basal), individual animal",T2 h-T2 h 30,100.99 % of respective basal and 85.23 % of respective basal and 60.74 % of respective basal and 101.82 % of respective basal and 125.47 % of respective basal and 100.57 % of respective basal and 111.12 % of respective basal and 50.78 % of respective basal
same,"5-HIAA (% of respective basal), individual animal",T3 h 30-T4 h,85.88 % of respective basal and 94.27 % of respective basal and 31.74 % of respective basal and 96.48 % of respective basal and 188.3 % of respective basal and 137.13 % of respective basal and 101.46 % of respective basal and 21.73 % of respective basal
same,"5-HIAA (% of respective basal), individual animal",T3 h-T3 h 30,129.21 % of respective basal and 80.95 % of respective basal and 41.77 % of respective basal and 96.17 % of respective basal and 133.55 % of respective basal and 113.01 % of respective basal and 113.45 % of respective basal and 29.04 % of respective basal
same,"5-HIAA (% of respective basal), individual animal",T4 h 30-T5 h,135.57 % of respective basal and 84.63 % of respective basal and 82.26 % of respective basal and 21.52 % of respective basal and 127.36 % of respective basal and 130.30 % of respective basal and 108.83 % of respective basal and 86.42 % of respective basal
same,"5-HIAA (% of respective basal), individual animal",T4 h-T4 h 30,155.28 % of respective basal and 81.87 % of respective basal and 29.82 % of respective basal and 104.10 % of respective basal and 154.95 % of respective basal and 128.712 % of respective basal and 116.56 % of respective basal and 100.63 % of respective basal
same,"5-HIAA (% of respective basal), individual animal",T5 h 30-T6 h,139.17 % of respective basal and 82.04 % of respective basal and 19.18 % of respective basal and 72.04 % of respective basal and 120.26 % of respective basal and 106.59 % of respective basal and 103.65 % of respective basal and 79.99 % of respective basal
same,"5-HIAA (% of respective basal), individual animal",T5 h-T5 h 30,141.25 % of respective basal and 94.73 % of respective basal and 20.29 % of respective basal and 84.33 % of respective basal and 123.82 % of respective basal and 104.61 % of respective basal and 111.73 % of respective basal and 87.84 % of respective basal
same,"5-HIAA (% of respective basal), individual animal",T6 h 30-T7 h,142.73 % of respective basal and 92.55 % of respective basal and 23.25 % of respective basal and 79.21 % of respective basal
same,"5-HIAA (% of respective basal), individual animal",T6 h-T6 h 30,150.15 % of respective basal and 87.80 % of respective basal and 10.87 % of respective basal and 82.34 % of respective basal and 124.74 % of respective basal and 107.55 % of respective basal and 96.41 % of respective basal and 77.86 % of respective basal
same,"5-HIAA release, MEAN",T0-T30 min,103.44 % of respective basal
same,"5-HIAA release, MEAN",T30-T1 h,100.34 % of respective basal
same,"5-HIAA release, individual animals",T30-T1 h,98.98 % of respective basal and 79.36 % of respective basal and 110.17 % of respective basal and 105.67 % of respective basal and 80.63 % of respective basal and 95.45 % of respective basal and 117.90 % of respective basal and 114.56 % of respective basal
same,"5-HIAA release, MEAN",T1 h 30-T2 h,92.27 % of respective basal
same,"5-HIAA release, individual animals",T1 h 30-T2 h,107.81 % of respective basal and 80.74 % of respective basal and 99.11 % of respective basal and 100.15 % of respective basal and 74.98 % of respective basal and 49.45 % of respective basal and 122.26 % of respective basal and 103.65 % of respective basal
same,"5-HIAA release, MEAN",T1 h-T1 h 30,98.46 % of respective basal
same,"5-HIAA release, individual animals",T1 h-T1 h 30,102.59 % of respective basal and 87.99 % of respective basal and 119.49 % of respective basal and 107.50 % of respective basal and 64.53 % of respective basal and 82.55 % of respective basal and 108.28 % of respective basal and 114.78 % of respective basal
same,"5-HIAA release, MEAN",T2 h 30-T3 h,88.58 % of respective basal
same,"5-HIAA release, individual animals",T2 h 30-T3 h,90.73 % of respective basal and 88.56 % of respective basal and 94.96 % of respective basal and 87.45 % of respective basal and 59.92 % of respective basal and 79.89 % of respective basal and 107.14 % of respective basal and 99.98 % of respective basal
same,"5-HIAA release, MEAN",T2 h-T2 h 30,88.16 % of respective basal
same,"5-HIAA release, individual animals",T2 h-T2 h 30,82.87 % of respective basal and 87.22 % of respective basal and 100.63 % of respective basal and 93.66 % of respective basal and 63.67 % of respective basal and 70.87 % of respective basal and 109.73 % of respective basal and 96.64 % of respective basal
